Experimental findings from patent US10471043B2, “Compounds and methods of treating bacterial infections” (ULTUPHARMA AB, priority 2015, dated 2019) are described below.

Holding throughout (format): cell-based
For one assay, the system named is S. pneumoniae. Kind of assay: Antimicrobial Susceptibility Test by Broth Microdilution, M07-A9 CLSI. The following applies: Streptococcus pneumoniae. On the technique in general: In broth dilution the organism is exposed to a series of concentrations in liquid medium.
The test system of the next assay is Citrobacter sp. Kind of assay: MIC panel of Gram-negative bacteria (Table 7). The following applies: EN0465 Citrobacter sp. G− PKL 3710.
The subject of another assay is K. oxytoca. Kind of assay: MIC panel of Gram-negative bacteria (Table 7). Particulars: Klebsiella oxytoca; EN0392 K. oxytoca G−.

Structures are written as SMILES. In brackets after ≈: the same amount, converted by molar mass.

For `CCCCCCCCCC1CC(O)=C(C(=O)CCC)C(=O)O1` (stereo not shown) [Ex. 1, 3-Butyryl-6-nonyl-4-hydroxy-5,6-dihydro-2H-pyran-2-one], the MIC (in general, the lowest concentration that inhibits growth of the organism) was 4 µg/mL (≈ 12.9 µM) in the assay on S. pneumoniae (ATCC49619, S. pneumoniae ATCC 49619, QC strain); 8 µg/mL in the assay on S. pneumoniae (BAA1407, S. pneumoniae BAA1407, Macrolide-resistant (M + MLS)); 8 µg/mL (≈ 25.8 µM) in the assay with S. pneumoniae (S. pneumoniae 19A-TN, Quinolone-sensitive); 4 µg/mL (≈ 12.9 µM) in the assay with S. pneumoniae (S. pneumoniae 158bg, Macrolide-resistant (M)); 4 µg/mL (≈ 12.9 µM) against S. pneumoniae (S. pneumoniae 956, Macrolide-resistant (MLSc)); 8 µg/mL (≈ 25.8 µM) in the assay with S. pneumoniae (S. pneumoniae SP030, Macrolide- sensitive). Further, the MIC with S. pneumoniae (S. pneumoniae TE 122-024, Quinolone-resistant) was 8 µg/mL (≈ 25.8 µM); against S. pneumoniae (S. pneumoniae TE 122-026, Tetracycline-resistant), 4 µg/mL (≈ 12.9 µM); with Citrobacter sp. it was above 64 µg/mL; with K. oxytoca it was above 64 µg/mL.
